The text below walks through data of article PMC7576608, “Mechanisms of telomerase inhibition by oxidized and therapeutic dNTPs” (Nature Communications, 2020).

Molecules are shown by their SMILES. “And” between values parts separate entries of the source, which are not always exact repeats. Identical values can stand only once.

Assay [1] deals with T1, telomerase (Homo sapiens, UniProt O14746). Description: Telomerase extension after insertion of modified dNTP (percent of product terminated at each template position). Type of assay: biochemical. Also on record: made in house; anti-FLAG immunopurification, eluted with 3xFLAG peptide. The following applies: for Percent of Total Product: Mean. As for the experimental part:
Direct telomerase assays were conducted with 5 nM ^32P-end labeled primer a and d Primer 3 (AGGGTT)3, b Primer 1 (TTAGGG)3, or c Primer 2 […]. […] Products were separated on denaturing gels. Letters on the y-axis of the graph indicate the template base; P indicates unextended 18-mer primer. Graphs represent percent of product terminated at each template position as a function of total products. Images are representative of, and data are the mean ± s.d. from, three independent experiments. Source data are provided as a Source Date file.
(§1) The reactions were started by the addition of 3 μl of immunopurified telomerase eluent, incubated at 37 °C for 1 h, then terminated with 2 μl of […] and heat inactivated at 65 °C for 20 min. An equal volume of loading buffer (94% formamide, 0.1× TBE, 0.1% bromophenol blue, 0.1% xylene cyanol) was added to the reaction eluent. The samples were heat denatured for 10 min at 100 °C and loaded onto a 14% denaturing acrylamide gel (7 M urea, 1× TBE) and electrophoresed for 90 min at constant 38 W. Samples were imaged using a Typhoon phosphorimager (GE Healthcare). Percent primer extension was calculated with ImageQuant TL 8.2 by measuring the intensity of each product band and dividing by the total radioactivity in the lane or total products, as indicated in the figure legends.
Target sequence in this assay (O14746 whole entry): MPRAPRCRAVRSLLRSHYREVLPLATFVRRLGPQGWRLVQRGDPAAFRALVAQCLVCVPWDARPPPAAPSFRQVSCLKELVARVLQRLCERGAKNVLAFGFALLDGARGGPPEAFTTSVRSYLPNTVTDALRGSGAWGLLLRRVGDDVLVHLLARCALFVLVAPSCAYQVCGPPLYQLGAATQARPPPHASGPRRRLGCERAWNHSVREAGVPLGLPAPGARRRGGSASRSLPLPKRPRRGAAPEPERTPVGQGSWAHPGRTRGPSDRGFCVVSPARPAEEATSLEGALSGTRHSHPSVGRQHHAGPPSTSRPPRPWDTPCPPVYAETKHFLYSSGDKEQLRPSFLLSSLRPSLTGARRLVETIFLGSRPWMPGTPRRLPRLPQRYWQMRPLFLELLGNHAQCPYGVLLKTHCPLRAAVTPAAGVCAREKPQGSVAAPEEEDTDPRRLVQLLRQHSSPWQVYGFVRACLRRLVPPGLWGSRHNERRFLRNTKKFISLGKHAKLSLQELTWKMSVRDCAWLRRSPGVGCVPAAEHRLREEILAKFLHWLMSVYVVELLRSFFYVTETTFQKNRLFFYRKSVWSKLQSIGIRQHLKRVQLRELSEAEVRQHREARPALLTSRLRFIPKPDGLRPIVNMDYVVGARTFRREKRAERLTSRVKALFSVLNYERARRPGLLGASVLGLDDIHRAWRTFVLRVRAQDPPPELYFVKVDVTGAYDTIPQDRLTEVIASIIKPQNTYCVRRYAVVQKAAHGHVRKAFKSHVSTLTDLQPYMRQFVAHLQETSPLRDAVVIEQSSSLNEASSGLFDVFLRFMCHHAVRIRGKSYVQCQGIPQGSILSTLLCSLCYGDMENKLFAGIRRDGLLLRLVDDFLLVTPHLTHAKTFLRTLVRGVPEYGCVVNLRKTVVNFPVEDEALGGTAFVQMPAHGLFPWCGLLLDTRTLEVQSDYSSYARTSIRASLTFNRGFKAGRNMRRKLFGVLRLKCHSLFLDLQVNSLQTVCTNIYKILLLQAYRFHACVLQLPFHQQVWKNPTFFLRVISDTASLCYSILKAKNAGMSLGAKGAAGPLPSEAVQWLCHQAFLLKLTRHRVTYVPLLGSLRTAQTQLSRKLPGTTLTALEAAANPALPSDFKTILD

The target of assay [2] is T1, telomerase. Description: Direct telomerase assay in the absence or presence of POT1-TPP1 (processivity R1/2). The assay is classed as biochemical. Further details: made in house; POT1: baculovirus-infected Sf9; TPP1-N: E. coli BL21(DE3) pLysS. The following applies: analog substituted for its natural dNTP, other dNTPs at cellular concentration.
Source text: Next we tested whether the telomerase processivity factor POT1–TPP1 modulates modified dNTP inhibition of telomerase. POT1 binds to the telomeric ssDNA overhang, requiring the minimum sequence of 5′-[…]-3′[38]. Inclusion of POT1-binding partner TPP1, increases the binding affinity for telomeric DNA ten-fold compared to POT1 alone. POT1–TPP1 recruits telomerase to telomeres in vivo[39], and greatly increases telomerase repeat processivity. Therefore, we reasoned that POT1–TPP1 may overcome inhibition by the modified dNTPs and enhance telomerase processivity. We conducted telomerase extension reactions with radiolabeled primer in the presence of POT1–TPP1, and used a primer with a single mutation ([…]; underlined G to C mutation)[40] to ensure POT1–TPP1 is positioned at the 5′ portion of the primer (Fig. 5). This provides a homogenous substrate for telomerase extension.
For these reactions, we replaced the natural dNTP with the modified dNTP analog, while the other dNTPs remained at cellular relevant concentrations.
Direct telomerase assays were conducted in the absence or presence of 500 nM POT1 and 500 nM TPP1, as indicated, and 5 nM ^32P-end labeled primer ([…]) designed to position POT1 at the 10 nt primer 5′ end. Reactions contained cellular-concentration dNTPs (lanes 1 and 2), except when the natural dNTP was substituted with the oxidized dNTP a or therapeutic dNTP b analog (lanes 3–8), as indicated. […] Letters on the right indicate template base; P indicates unextended 18-mer primer. c Processivity was calculated on the basis of total products normalized to loading control. Images are representative of, and data are shown as mean ± s.d. from 3 to 5 independent experiments. Source data are provided as a Source Data file.
as §1
The processivity was calculated as described[40],[67]. Repeat processivity from the direct telomerase extension assays was calculated as R1/2 (equivalent to the half-time for decay in an exponential time course), which represents the median length of DNA product formed, expressed in terms of number of telomere repeats. First, the total volume counts for each product band extend by one or more telomere repeats were obtained using Image Quant TL. The volume counts were then normalized by dividing by the number of radiolabeled guanosines incorporated into the extended products based on the number of repeats added, termed corrected volume (corr vol). The “percent left behind” (%LB) was calculated for each product band by summing the counts for that product band and for every product band below (shorter products), divided by the total counts for the lane, and then multiplied by 100. The natural log of (100−%LB) was calculated and then plotted vs. repeat number for each product length. A linear regression line was fit to the data to determine the slope of the line.

The mark [3] stands for this setting: Fig 4a, Primer 3, 50 μM each dTTP, dGTP and dATP or 2-OH-dATP, terminated at rA3.
Setting [4] is: Fig 4a, Primer 3, 50 μM each dTTP, dGTP and dATP or 2-OH-dATP, terminated at rA4.
The mark [5] stands for this setting: Fig 4a, Primer 3, 50 μM each dTTP, dGTP and dATP or 2-OH-dATP, terminated at rC1.
[6] abbreviates: Fig 4a, Primer 3, 50 μM each dTTP, dGTP and dATP or 2-OH-dATP, terminated at rC2.
The mark [7] stands for this setting: Fig 4a, Primer 3, 50 μM each dTTP, dGTP and dATP or 2-OH-dATP, terminated at rC6.
Setting [8] is: Fig 4a, Primer 3, 50 μM each dTTP, dGTP and dATP or 2-OH-dATP, terminated at rU5 (first).
The mark [9] stands for this setting: Fig 4a, Primer 3, 50 μM each dTTP, dGTP and dATP or 2-OH-dATP, terminated at rU5 (second, after translocation).
The mark [10] stands for this setting: 500 nM POT1 and 500 nM TPP1, Mean.
Where [11] appears, read: 500 nM POT1 and 500 nM TPP1, n1-n3.

For the compound `Nc1nc(O)nc2c1ncn2C1CC(O)C(COP(=O)(O)OP(=O)(O)OP(=O)(O)O)O1` (stereo not drawn) [2-OH-dATP], in assay [1] (50 μM each dNTP, analog substituted for natural dNTP), the “Extension after insertion of the modified dNTP (in words)” value is “translocation to add the next repeat is greatly compromised”. In addition, the “Percent of Total Product” value in assay [1] (setting [3]) was found to be 5.06%; in assay [1] (setting [4]), 1.19%; in assay [1] (setting [5]) it was 1.62%; in assay [1] (setting [6]), 10.51%; in assay [1] (setting [7]), 68.71%; in assay [1] (setting [8]) it was 12.42%. Also, the “Percent of Total Product” value in assay [1] (setting [9]) amounted to 0.49%. Further, the “Processivity R 1/2” value is 2.3 in assay [2] (setting [10]); 2.27 in assay [2] (500 nM POT1 and 500 nM TPP1, Mean, listed as 2dA); 2.20 and 2.10 and 2.50 in assay [2] (500 nM POT1 and 500 nM TPP1, n1-n3, listed as 2dA); 0.5 in assay [2] (Control (no POT1-TPP1), Mean); 0.49 in assay [2] (Control (no POT1-TPP1), Mean, listed as 2dA); 0.49 and 0.48 and 0.51 in assay [2] (Control (no POT1-TPP1), n1-n3, listed as 2dA).
Take `Nc1ncnc2c1[nH]c(=O)n2C1CC(O)C(COP(=O)(O)OP(=O)(O)OP(=O)(O)O)O1` (stereo not drawn) [8-oxo-dATP]: the “Processivity R 1/2” value in assay [2] (setting [10]) was 1.31; in assay [2] (500 nM POT1 and 500 nM TPP1, n1-n3, listed as 8dA), 1.15 and 1.30 and 1.47; in assay [2] (Control (no POT1-TPP1), Mean) it was 0.00; in assay [2] (Control (no POT1-TPP1), n1-n3) it was 0.00.
For the compound `Nc1nc2c([nH]c(=O)n2C2CC(O)C(COP(=O)(O)OP(=O)(O)OP(=O)(O)O)O2)c(=O)[nH]1` (stereo not drawn) [8-oxo-dGTP], the “Processivity R 1/2” value in assay [2] (setting [10]) was found to be 0.00; in assay [2] (setting [11]), 0.00; in assay [2] (Control (no POT1-TPP1), Mean), 0.00; in assay [2] (Control (no POT1-TPP1), n1-n3), 0.00.
Regarding `Cc1cn([C@H]2C[C@H](N=[N+]=[N-])[C@@H](CO[P@](=O)(O)O[P@](=O)(O)OP(=O)(O)O)O2)c(=O)[nH]c1=O` [AZT-TP], the “Processivity R 1/2” value in assay [2] (setting [10]) was 0.00; in assay [2] (setting [11]) it was 0.00; in assay [2] (Control (no POT1-TPP1), Mean) it was 0.00; in assay [2] (Control (no POT1-TPP1), n1-n3), 0.00.
Take `Nc1ncnc2c1ncn2C1CC(O)C(COP(=O)(O)OP(=O)(O)OP(=O)(O)O)O1` (stereo not drawn) [dATP]: the “Percent of Total Product” value in assay [1] (setting [3]) is 2.35%; in assay [1] (setting [4]), 1.56%; in assay [1] (setting [5]), 1.47%; in assay [1] (setting [6]), 0.77%; in assay [1] (setting [7]), 8.96%; in assay [1] (setting [8]), 4.92%. Also, the “Percent of Total Product” value in assay [1] (setting [9]) is 0.73%.
For `Nc1nc2c(ncn2C2CC(O)C(COP(=O)(O)OP(=O)(O)OP(=O)(O)O)O2)c(=O)[nH]1` (stereo not drawn) [dGTP], the “Percent of Total Product” value was found to be 7.65% in assay [1] (Fig 4b, Primer 1 (TTAGGG)3, 50 μM each dATP, dTTP and dGTP or 6-thio-dGTP, terminated at rA3); 5.26% in assay [1] (Fig 4b, Primer 1, 50 μM each dATP, dTTP and dGTP or 6-thio-dGTP, terminated at rA4); 0.66% in assay [1] (Fig 4b, Primer 1, 50 μM each dATP, dTTP and dGTP or 6-thio-dGTP, terminated at rC1); 0.40% in assay [1] (Fig 4b, Primer 1, 50 μM each dATP, dTTP and dGTP or 6-thio-dGTP, terminated at rC2); 4.56% in assay [1] (Fig 4b, Primer 1, 50 μM each dATP, dTTP and dGTP or 6-thio-dGTP, terminated at rC6); 0.95% in assay [1] (Fig 4b, Primer 1, 50 μM each dATP, dTTP and dGTP or 6-thio-dGTP, terminated at rU5). Also, the “Percent of Total Product” value is 5.15% in assay [1] (Fig 4c, Primer 2, 50 μM each dATP, dTTP and dGTP or 6-thio-dGTP, terminated at rA3); 4.76% in assay [1] (Fig 4c, Primer 2, 50 μM each dATP, dTTP and dGTP or 6-thio-dGTP, terminated at rA4); 7.39% in assay [1] (Fig 4c, Primer 2, 50 μM each dATP, dTTP and dGTP or 6-thio-dGTP, terminated at rC1); 1.97% in assay [1] (Fig 4c, Primer 2, 50 μM each dATP, dTTP and dGTP or 6-thio-dGTP, terminated at rC2); 6.22% in assay [1] (Fig 4c, Primer 2, 50 μM each dATP, dTTP and dGTP or 6-thio-dGTP, terminated at rC6); 1.19% in assay [1] (Fig 4c, Primer 2, 50 μM each dATP, dTTP and dGTP or 6-thio-dGTP, terminated at rU5). In addition, the “Percent of Total Product” value in assay [1] (Fig 4d, Primer 3 (AGGGTT)3, 50 μM each dATP, dTTP and dGTP or 6-thio-dGTP, terminated at rU5) amounted to 4.50%; in assay [1] (Fig 4d, Primer 3, 50 μM each dATP, dTTP and dGTP or 6-thio-dGTP, terminated at rA3), 2.21%; in assay [1] (Fig 4d, Primer 3, 50 μM each dATP, dTTP and dGTP or 6-thio-dGTP, terminated at rC1), 1.49%; in assay [1] (Fig 4d, Primer 3, 50 μM each dATP, dTTP and dGTP or 6-thio-dGTP, terminated at rC2), 0.72%; in assay [1] (Fig 4d, Primer 3, 50 μM each dATP, dTTP and dGTP or 6-thio-dGTP, terminated at rC6), 8.67%.
`O=c1[nH]cnc2c1ncn2C1CCC(COP(=O)(O)OP(=O)(O)OP(=O)(O)O)O1` (stereo not drawn) [ddITP]: the “Processivity R 1/2” value in assay [2] (setting [10]) was 0.00; in assay [2] (setting [11]), 0.00; in assay [2] (Control (no POT1-TPP1), Mean), 0.00; in assay [2] (Control (no POT1-TPP1), n1-n3), 0.00.
